Counter-ions that a name gives are not always drawn.
Legend:
[1] = molecular target: T1, full-length proMMP9(1-707) activation by catalytic MMP3 (Homo sapiens, UniProt P14780, R574P); assay: proMMP9/MMP3 P126 Activation Assay; assay type: biochemical
T1 construct: made in house; host or cells: proMMP9: HEK293 (secreted); MMP3: E. coli
Description: proMMP9/MMP3 P126 Activation Assay
The reaction volume was 50 μL. […] Reactivity of residual MMP3 towards P-126 substrate was minimal under these conditions.

[2] = molecular target: T2, proMMP9(20-445;ΔFnII) (SEQ ID NO:6) (Homo sapiens, UniProt P14780, DEL216-390); assay: ThermoFluor binding assay with proMMP9(20-445;ΔFnII)
T2 construct: start methionine (N); made in house; host or cells: E. coli BL21(DE3) RIL
T2 sequence (P14780 with tags, fused parts or gaps DEL216-390): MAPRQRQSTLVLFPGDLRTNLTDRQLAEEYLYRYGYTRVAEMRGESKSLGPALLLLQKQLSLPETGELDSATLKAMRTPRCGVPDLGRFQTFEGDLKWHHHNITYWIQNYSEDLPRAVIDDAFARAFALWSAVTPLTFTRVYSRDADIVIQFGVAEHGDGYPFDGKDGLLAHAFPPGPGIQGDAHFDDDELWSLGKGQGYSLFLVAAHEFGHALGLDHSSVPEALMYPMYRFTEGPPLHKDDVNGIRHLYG
Summary of the method: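 Protein thermal stability was measured with 2.8 μM proMMP9(20-445;ΔFnII) and 50 μM 1,8-ANS in 50 mM HEPES pH 7.0, 100 mM NaCl, 0.001% Tween-20, 2.5 mM MgCl2, 300 μM CaCl2, across serial compound dilutions. Samples were heated 40–90° C at 1° C/min with fluorescence read at 500 nm. Tm was fitted, and binding was derived from thermodynamic parameters obtained by DSC and ThermoFluor.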

[3] = molecular target: T3, proMMP9(67-444;ΔFnII) (SEQ ID NO:5) (Homo sapiens, UniProt P14780, DEL216-390); assay: ThermoFluor binding assay with proMMP9(67-444;ΔFnII)
T3 construct: start methionine (N); made in house; host or cells: E. coli BL21(DE3) RIL
T3 sequence (P14780 with tags, fused parts or gaps DEL216-390): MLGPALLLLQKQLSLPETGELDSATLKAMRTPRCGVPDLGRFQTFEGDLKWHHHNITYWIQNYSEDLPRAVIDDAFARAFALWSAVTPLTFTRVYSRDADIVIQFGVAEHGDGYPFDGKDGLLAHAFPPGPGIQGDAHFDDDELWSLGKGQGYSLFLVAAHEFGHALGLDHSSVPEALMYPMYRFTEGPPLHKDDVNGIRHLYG
Summary of the method: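 Thermal shift of 3.5 μM proMMP9(67-444;ΔFnII), desalted beforehand, with 50 μM 1,8-ANS in 50 mM HEPES pH 7.0, 100 mM NaCl, 2.5 mM MgCl2, 300 μM CaCl2, 0.001% Tween-20. Heated 40–90 °C at 1 °C/min, fluorescence read at 500 nm; binding fitted from Tm shifts using DSC- and ThermoFluor-derived unfolding parameters.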

[4] = molecular target: T4, proMMP13(1-268) activation by plasmin (Homo sapiens, UniProt P45452); assay: ProMMP13/Plasmin P126 Activation Assay; assay type: biochemical
T4 construct: 6xHis (C); made in house; host or cells: HEK293 (proMMP13)
Description: ProMMP13/Plasmin P126 Activation Assay
On the day of assay, proMMP13(1-268) (SEQ ID NO:7) purified from HEK293 cells and plasmin were diluted to 160 nM and 320 nM, respectively, in assay buffer. The reaction volume was 50 μL. […] The plate was sealed and incubated for 40 min at 37° C. […] Plasmin was not reactive towards P-126 substrate under these conditions.

[5] = molecular target: T5, proMMP13(1-268) (SEQ ID NO:7) (Homo sapiens, UniProt P45452); assay: ThermoFluor binding assay with proMMP13(1-268)
T5 construct: 6xHis (C); made in house; host or cells: HEK293 (transient, secreted)
Description: The ThermoFluor® (TF) assay is a 384-well plate-based binding assay that measures thermal stability of proteins (Biomol Screen 2001, 6, 429-40; Biochemistry 2005, 44, 5258-66). The experiments were carried out using instruments available from Johnson & Johnson Pharmaceutical Research & Development, LLC. TF dye used in all experiments was […] (1,8-ANS) (Invitrogen: A-47).
Compounds were arranged in a pre-dispensed plate (Greiner Bio-one: 781280), wherein compounds were serially diluted in 100% DMSO across 11 columns within a series. Columns 12 and 24 were used as DMSO reference and contained no compound. For multiple compound concentration-response experiments, the compound aliquots (50 nL) were robotically predispensed directly into black 384-well polypropylene PCR microplates (Abgene: TF-0384/k) using a Cartesian Hummingbird liquid handler (DigiLab, Holliston, Mass.). Following compound dispense, protein and dye solutions were added to achieve the final assay volume of 3 μL. The assay solutions were overlayed with 1 μL of silicone oil (Fluka, type DC 200: 85411) to prevent evaporation.
Assay plates were robotically loaded onto a thermostatically controlled PCR-type thermal block and then heated from 40 to 90° C. at a ramp-rate of 1° C./min for all experiments. Fluorescence was measured by continuous illumination with UV light (Hamamatsu LC6) supplied via fiber optics and filtered through a band-pass filter (380-400 nm; >60D cutoff). Fluorescence emission of the entire 384-well plate was detected by measuring light intensity using a CCD camera (Sensys, Roper Scientific) filtered to detect 500±25 nm, resulting in simultaneous and independent readings of all 384 wells. A single image with 20-sec exposure time was collected at each temperature, and the sum of the pixel intensity in a given area of the assay plate was recorded vs temperature and fit to standard equations to yield the Tm (J Biomol Screen 2001, 6, 429-40).
Thermodynamic parameters necessary for fitting compound binding for each proMMP were estimated by differential scanning calorimetry (DSC) and from ThermoFluor® data. The heat capacity of unfolding for each protein was estimated from the molecular weight and from ThermoFluor® dosing data.
ThermoFluor® with proMMP13(1-268) (SEQ ID NO: 7)
The proMMP13(1-268) (SEQ ID NO:7) protein sample preparations included a desalting buffer exchange step via a PD-10 gravity column (GE Healthcare). The desalting buffer exchange was performed prior to diluting the protein to the final assay concentration of 3.5 μM. The concentration of proMMP13(1-268) (SEQ ID NO:7) was estimated spectrophotometrically based on a calculated extinction coefficient of ε280=37000 M^−1 cm^−1, a calculated molecular weight of 30.8 kDa, and calculated pI of 5.33. ThermoFluor® reference conditions were defined as follows: 100 μg/mL proMMP13(1-268) (SEQ ID NO:7), 25 μM 1,8-ANS, pH 7.0 Buffer (50 mM HEPES pH 7.0, 100 mM NaCl, 0.001% Tween-20, 2.5 mM MgCl2, 300 μM CaCl2). The thermodynamic parameters for proMMP13(1-268) (SEQ ID NO:7) are as follows: Tm (° C.)=67 (+/−0.1), ΔUH(Tm)) (cal mol^−1)=107000(+/−5000), ΔUSTm (cal mol^−1 K^−1)=318, ΔUCp (cal mol^−1 K^−1)=2600.

T1 sequence (P14780 20-707 R574P): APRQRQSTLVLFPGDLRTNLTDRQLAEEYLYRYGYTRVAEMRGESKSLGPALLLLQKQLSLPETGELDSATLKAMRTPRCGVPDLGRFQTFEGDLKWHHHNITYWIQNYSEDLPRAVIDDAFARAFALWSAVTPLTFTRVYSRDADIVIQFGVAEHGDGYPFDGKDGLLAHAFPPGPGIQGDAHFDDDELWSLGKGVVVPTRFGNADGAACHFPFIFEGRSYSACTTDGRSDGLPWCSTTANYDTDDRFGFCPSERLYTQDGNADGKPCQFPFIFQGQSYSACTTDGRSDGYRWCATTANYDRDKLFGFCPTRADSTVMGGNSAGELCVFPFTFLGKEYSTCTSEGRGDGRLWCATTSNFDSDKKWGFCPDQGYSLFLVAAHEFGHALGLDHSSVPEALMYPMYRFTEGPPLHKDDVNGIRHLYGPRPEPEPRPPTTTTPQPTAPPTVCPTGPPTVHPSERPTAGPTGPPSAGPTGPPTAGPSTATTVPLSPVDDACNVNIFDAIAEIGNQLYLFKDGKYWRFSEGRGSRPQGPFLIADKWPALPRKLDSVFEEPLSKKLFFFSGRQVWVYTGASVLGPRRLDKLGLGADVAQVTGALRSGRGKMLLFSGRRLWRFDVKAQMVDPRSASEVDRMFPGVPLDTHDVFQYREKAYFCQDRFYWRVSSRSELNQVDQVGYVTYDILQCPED

Structure (SMILES)	IC50 [1]	Kd [2]	Kd [3]	IC50 [4]	Kd [5]
COc1ccc(C(N)=O)cc1Nc1nc2c(ccc3c2cnn3C)s1 [Example 95, 4-Methoxy-3-(6-methyl-6H-3-thia-1,6,7-triaza-as-indacen-2-ylamino)-benzamide.HCl]	170 nM	190 nM	360 nM	1800 nM	
CC(C)Oc1ccc(C(N)=O)cc1Nc1nc2c(ccc3[nH]c(N)nc32)s1 [Example 11, 3-(7-Amino-6H-imidazo[4′,5′:3,4]benzo[2,1-d]thiazol-2-ylamino)-4-isopropoxy-benzamide.HCl]	250 nM	1300 nM	720 nM		470 nM
CC(C)Oc1ccc(C(N)=O)cc1Nc1nc2c(ccc3[nH]c(CO)nc32)s1 [Example 21, 3-(7-Hydroxymethyl-6H-imidazo[4′,5′:3,4]-benzo[2,1-d]thiazol-2-ylamino)-4-isopropoxy-benzamide.HCl]	500 nM	410 nM	330 nM		3500 nM
CC(C)Oc1ccc(C(N)=O)cc1Nc1nc2c(ccc3ncccc32)s1 [Example 91, 4-Isopropoxy-3-(thiazolo[4,5-f]quinolin-2-ylamino)-benzamide.TFA]	1300 nM	950 nM	2900 nM		9000 nM
COc1ccc(Cl)cc1Nc1nc2c(ccc3c2ncn3C)s1 [Example 40, (5-Chloro-2-methoxy-phenyl)-(6-methyl-6H-imidazo[4′,5′:3,4]benzo[2,1-d]thiazol-2-yl)-amine.HCl]	170 nM	830 nM	100 nM		1600 nM
Cc1nc2c(ccc3sc(Nc4cc(C(N)=O)ccc4OC(C)C)nc32)[nH]1 [Example 19, 4-Isopropoxy-3-(7-methyl-6H-imidazo[4′,5′:3,4]benzo[2,1-d]thiazol-2-ylamino)-benzamide.HCl]	350 nM	460 nM	380 nM		2200 nM
CCn1c(C)nc2ccc3sc(Nc4cc(C(N)=O)ccc4OC(C)C)nc3c21 [Example 35, 3-(8-Ethyl-7-methyl-8H-imidazo[4′,5′:3,4]benzo[2,1-d]thiazol-2-ylamino)-4-isopropoxy-benzamide.HCl]	53 nM	55 nM	150 nM		430 nM
CC(C)Oc1ccc(C(N)=O)cc1Nc1nc2c(ccc3[nH]c(Cl)nc32)s1 [Example 25, 3-(7-Chloro-6H-imidazo[4′,5′:3,4]benzo[2,1-d]thiazol-2-ylamino)-4-isopropoxy-benzamide.HCl]	490 nM	430 nM	200 nM		2700 nM
CC(=O)Nc1nc2c(ccc3sc(Nc4cc(C(N)=O)ccc4OC(C)C)nc32)[nH]1 [Example 18, 3-(7-Acetylamino-6H-imidazo[4′,5′:3,4]-benzo[2,1-d]thiazol-2-ylamino)-4-isopropoxy-benzamide.HCl]	630 nM	880 nM	550 nM		3400 nM
COc1c(Nc2nc3c(ccc4c3ncn4C)s2)cc(C(N)=O)c(F)c1F [Example 44, 2,3-Difluoro-4-methoxy-5-(6-methyl-6H-imidazo[4′,5′:3,4]-benzo[2,1-d]thiazol-2-ylamino)-benzamide.HCl]	3800 nM	25000 nM	6200 nM		9900 nM
CCS(=O)(=O)c1ccc(OC)c(Nc2nc3c(ccc4c3ncn4C)s2)c1 [Example 60, (5-Ethanesulfonyl-2-methoxy-phenyl)-(6-methyl-6H-imidazo[4′,5′:3,4]-benzo[2,1-d]thiazol-2-yl)-amine.HCl]	340 nM	2800 nM	970 nM		1500 nM
COc1ccc(OC)c(Nc2nc3c(ccc4c3ncn4C)s2)c1 [Example 42, (2,5-Dimethoxy-phenyl)-(6-methyl-6H-imidazo[4′,5′:3,4]-benzo[2,1-d]thiazol-2-yl)-amine.HCl]	350 nM	1900 nM	370 nM		3400 nM
Cc1nc2c(s1)-c1nc(Nc3cc(C(N)=O)ccc3OC(C)C)sc1CC2 [Example 12, 4-Isopropoxy-3-(2-methyl-4,5-dihydro-benzo[1,2-d;3,4-d′]-bisthiazol-7-ylamino)-benzamide.TFA]	1100 nM	1700 nM	3800 nM		6500 nM
COc1ccc(S(=O)(=O)N(C)C)cc1Nc1nc2c(ccc3c2ncn3C)s1 [Example 55, 4-Methoxy-N,N-dimethyl-3-(6-methyl-6H-imidazo[4′,5′:3,4]benzo[2,1-d]thiazol-2-ylamino)-benzenesulfonamide.HCl]	530 nM	6700 nM	2200 nM		2100 nM
CC(C)Oc1ccc(C(N)=O)cc1Nc1nc2c(s1)CCc1ccncc1-2 [Example 116, 3-(4,5-Dihydro-thiazolo[5,4-h]isoquinolin-2-ylamino)-4-isopropoxy-benzamide.TFA]	980 nM	1800 nM	7300 nM		8700 nM
COc1ccccc1Nc1nc2c(ccc3[nH]c(N)nc32)s1 [Example 6, N^2-(2-Methoxy-phenyl)-6H-imidazo[4′,5′:3,4]benzo[2,1-d]thiazole-2,7-diamine]	660 nM	2400 nM	290 nM		11000 nM
COc1ccc(S(N)(=O)=O)cc1Nc1nc2c(ccc3c2ncn3C)s1 [Example 54, 4-Methoxy-3-(6-methyl-6H-imidazo[4′,5′:3,4]benzo[2,1-d]thiazol-2-ylamino)-benzenesulfonamide.HCl]	240 nM	1600 nM	1100 nM		11000 nM
